Experimental data taken from patent publication US11890287B2, “Therapeutic compounds and compositions for treating social disorders and substance use disorders” (Kinoxis Therapeutics Pty Ltd, priority 2015, dated 2024).
Values joined by “and” are separate entries in the source; they are usually repeats but may differ in a detail not shown here. Equal values may be shown once.

Legend:
[1] = tested on: Fos-positive cells in brain regions of interest; experiment: Fos immunohistochemistry in rat brain; type: in vivo, male Wistar rats
Method: Fos immunohistochemistry was used to identify the neural “signature” of SOC-1 (5 mg/kg) in rat brain relative to injections of peripheral oxytocin (OT) (1 mg/kg). SOC-1 produces a similar overall pattern of neural activation and behavioural effects as OT. However, the effects are much larger and additional areas are activated by SOC-1 that are implicated in the regulation of social behaviour (e.g. lateral septum, medial preoptic area and supraoptic nucleus). SOC-1 produces powerful activation of OT-containing neurons in both the supraoptic (FIG. 6: (A)=vehicle; (B)=oxytocin; and (C)=SOC-1) and paraventricular nucleus of the hypothalamus.

[2] = molecular target: T1, OTR (Homo sapiens, UniProt P30559); experiment: IP1 signalling on OTR HEK cells; type: cell-based
T1 construct: expressed in transfected cells; host or cells: HEK cells

[3] = tested on: Wistar rats; experiment: Biotelemetry of body temperature and heart rate; type: in vivo, rat
Method: FIG. 7—The monitored body temperatures of Wistar rats administered vehicle, SOC-1 (5 mg/kg), or SOC-1 and the V1A receptor antagonist SR49059 (10 mg/kg).
FIG. 8—The monitored heart rates for Wistar rats administered vehicle, SOC-1 (5 mg/kg), or SOC-1 and the V1A receptor antagonist SR49059 (10 mg/kg).
However, the rats were not ataxic or comatose, they were simply in a relaxed quiescent state. […] Effects on body temperature and other behaviours are not blocked by pre-treatment with the vasopressin V1A receptor antagonist SR49059 (10 mg/kg). […] The data in these two studies was gathered with DataSciences International biotelemetry system.

[4] = tested on: male Sprague Dawley rats; experiment: Methamphetamine-primed reinstatement; type: in vivo, rat
[5] = tested on: Sprague Dawley rats; experiment: Acute toxicity, single intravenous bolus dose of 50 mg/kg, one week dose range finding study; type: in vivo
Method: The acute toxicity of SOC-1 test items was assessed in Sprague Dawley rats following intravenous administration of a single bolus dose of 50 mg/kg. A total of n=3 adult female rats were treated and then observed for 7 days prior to termination on Study Day 8 without necropsy.
The design of this acute single dose toxicity study in rats was adapted from OECD Guideline for Testing of Chemicals No. 420 Acute Oral Toxicity—Fixed Dose Procedure’ 2001 (3) and the test facility Standard Operating Procedure SP_T002 ‘Dose Range Finding Study in Rodents’. The study procedures were conducted as outlined below and according to related test facility Standard Operating Procedures.
Briefly, on completion of the acclimation period the study was commenced with administration of the treatment on Study Day 1. […] Body weights were also collected daily. On Study Day 8 the surviving animals were culled without necropsy.
The 5 mg/mL test item treatments were administered as a bolus intravenous injection in a dose volume of 10 mL/kg on Study Day 1 with restraint on conscious animals.
Morbidity and mortality observations were recorded daily during the acclimation period and on Day 8, and twice daily from Day 1 through Day 7.
Clinical observations were conducted at least once during the acclimation period. Clinical observations were conducted at least once daily from Day 1 up to and including the day prior to termination. On the day of treatment the animals were monitored continuously for the first 30 minutes post-treatment with formal observations made at 30 minutes, 1 hour and 4 hours post-treatment.
The clinical observations included examination of animals for changes in skin and fur, eyes and mucous membranes, respiratory and circulatory function, gait and posture, behaviour, tremors or convulsions and any other abnormal findings.
The clinical observations also included daily examination of the tail for any injection site reaction (for example, erythema or oedema).
Body weight was recorded once during the acclimation period and daily from the time of treatment on Day 1 to Day 8.

T1 sequence (P30559 whole entry): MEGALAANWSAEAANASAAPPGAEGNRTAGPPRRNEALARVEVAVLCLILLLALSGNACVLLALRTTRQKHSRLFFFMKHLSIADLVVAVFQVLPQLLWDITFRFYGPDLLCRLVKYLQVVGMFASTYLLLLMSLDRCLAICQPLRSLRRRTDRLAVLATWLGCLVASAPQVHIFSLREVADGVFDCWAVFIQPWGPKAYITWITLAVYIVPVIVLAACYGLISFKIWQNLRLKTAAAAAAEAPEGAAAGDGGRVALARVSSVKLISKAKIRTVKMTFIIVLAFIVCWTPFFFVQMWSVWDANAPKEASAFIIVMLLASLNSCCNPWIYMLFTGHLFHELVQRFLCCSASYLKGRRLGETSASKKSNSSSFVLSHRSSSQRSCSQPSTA

Cl.Cn1ncc2c1Nc1ccccc1NC2 [SOC-1]
Fos expression in the oxytocin-positive cells in the supraoptic nucleus of the hypothalamus (SON) ([1]; 5 mg/kg): strongly activates Fos expression | Mean number of Fos-positive cells, BNST (dorsolateral division) ([1]; OT 1 mg/kg, SOC-1 5 mg/kg): 10.25 | Mean number of Fos-positive cells, BNST (middle anterior part)) ([1]; OT 1 mg/kg, SOC-1 5 mg/kg): 7 | Mean number of Fos-positive cells, Central nucleus of the amygdala ([1]; OT 1 mg/kg, SOC-1 5 mg/kg): 14.33 | Mean number of Fos-positive cells, Lateral Parabrachial nucleus ([1]; OT 1 mg/kg, SOC-1 5 mg/kg): 12.91 | Mean number of Fos-positive cells, Lateral septum (ventral) ([1]; OT 1 mg/kg, SOC-1 5 mg/kg): 34.17 | Mean number of Fos-positive cells, Locus Ceruleus ([1]; OT 1 mg/kg, SOC-1 5 mg/kg): 8.08 | Mean number of Fos-positive cells, Medial preoptic area ([1]; OT 1 mg/kg, SOC-1 5 mg/kg): 10.30 | Mean number of Fos-positive cells, Median preoptic nucleus ([1]; OT 1 mg/kg, SOC-1 5 mg/kg): 7.08 | Mean number of Fos-positive cells, Nucleus of Solitary Tract ([1]; OT 1 mg/kg, SOC-1 5 mg/kg): 17.58 | Mean number of Fos-positive cells, PAG (ventrolateral) ([1]; OT 1 mg/kg, SOC-1 5 mg/kg): 8.58 | Mean number of Fos-positive cells, Paraventircular nucleus ([1]; OT 1 mg/kg, SOC-1 5 mg/kg): 47.18 | Mean number of Fos-positive cells, Supraoptic nucleus ([1]; OT 1 mg/kg, SOC-1 5 mg/kg): 15.42 | Mean percent of OT cells that were Fos positive, Paraventircular nucleus ([1]; OT 1 mg/kg, SOC-1 5 mg/kg): 23.41% | Mean percent of OT cells that were Fos positive, Supraoptic nucleus ([1]; OT 1 mg/kg, SOC-1 5 mg/kg): 32.59% | agonist, antagonist or positive allosteric modulator activity at OTR [2]: not an agonist or antagonist at OTRs, nor a positive allosteric modulator of the OTR | body temperature ([3]; 5 mg/kg): modest hypothermia | heart rate ([3]; 5 mg/kg): no effect | hypothermia at higher ambient temperatures ([3]; 30° C.): abolished | lever-pressing activity, SOC-1 on its own (SOC-1+vehicle) ([4]; 10 mg/kg, vs extinction day prior, p=0.147): did not significantly alter lever-pressing activity | locomotor activity across reinstatement sessions ([4]; 2.5 (p=0.006), 5 and 10 mg/kg (p<0.005) prior to methamphetamine prime): significantly lower | active lever pressing produced by a methamphetamine prime ([4]; 2.5, 5 and 10 mg/kg IP, each p<0.005 vs vehicle): significantly reduced active lever pressing | locomotor activity, sole administration of SOC-1 ([4]; vs previous extinction session, p=0.472): did not significantly change locomotor activity | body weight findings ([5]; 50 mg/kg IV): no body weight findings that were considered treatment related | clinical findings post-dose on Study Day 1 ([5]; 50 mg/kg IV): mild piloerection and reduced activity levels | injection site reactions ([5]; 50 mg/kg IV): no findings of injection site reactions | morbidity and mortality ([5]; 50 mg/kg IV): no unscheduled deaths or findings of morbidity | time to resolution of clinical findings post-dose ([5]; 50 mg/kg IV): ≤ 4 h | tolerability ([5]; 50 mg/kg IV): tolerated | vocalisation and flinch reactions at the time of dosing ([5]; 50 mg/kg IV in Hartman's solution): not associated with similar reactions | Body Weight, mean ± SD ([5]; 50 mg/kg IV, Study Day 1): 224.30 ± 7.45 g | Body weight, individual rats ([5]; 50 mg/kg IV, Study Day 1): 228.4 grams and 215.7 grams and 228.8 grams | Body Weight, mean ± SD ([5]; 50 mg/kg IV, Study Day 2): 223.07 ± 4.37 g | Body weight, individual rats ([5]; 50 mg/kg IV, Study Day 2): 220.9 grams and 220.2 grams and 228.1 grams | Body Weight, mean ± SD ([5]; 50 mg/kg IV, Study Day 3): 226.87 ± 4.33 g | Body weight, individual rats ([5]; 50 mg/kg IV, Study Day 3): 225.1 grams and 223.7 grams and 231.8 grams | Body Weight, mean ± SD ([5]; 50 mg/kg IV, Study Day 4): 223.03 ± 5.34 g | Body weight, individual rats ([5]; 50 mg/kg IV, Study Day 4): 229.2 grams and 220.1 grams and 219.8 grams | Body Weight, mean ± SD ([5]; 50 mg/kg IV, Study Day 5): 222.77 ± 4.75 g | Body weight, individual rats ([5]; 50 mg/kg IV, Study Day 5): 219.0 grams and 221.2 grams and 228.1 grams | Body Weight, mean ± SD ([5]; 50 mg/kg IV, Study Day 6): 223.80 ± 3.70 g | Body weight, individual rats ([5]; 50 mg/kg IV, Study Day 6): 220.7 grams and 222.8 grams and 227.9 grams | Body Weight, mean ± SD ([5]; 50 mg/kg IV, Study Day 7): 226.60 ± 2.57 g | Body weight, individual rats ([5]; 50 mg/kg IV, Study Day 7): 225.7 grams and 224.6 grams and 229.5 grams | Body Weight, mean ± SD ([5]; 50 mg/kg IV, Study Day 8): 228.03 ± 3.81 g | Body weight, individual rats ([5]; 50 mg/kg IV, Study Day 8): 229.1 grams and 223.8 grams and 231.2 grams | Hunched posture or gait- mild (incidence) ([5]; 50 mg/kg IV, n 3): 1 | No abnormalities detected: (incidence) ([5]; 50 mg/kg IV, n 3): 0 | Piloerection- mild (incidence) ([5]; 50 mg/kg IV, n 3): 1 | Reduced activity (incidence) ([5]; 50 mg/kg IV, n 3): 3
